# In patent publication US9403808B2, “Pyrazine derivatives” (Hoffmann-La Roche Inc., priority 2011, dated 2016):
# Legend:
# [1] = biological target: human CB2 receptors (Homo sapiens (Human), UniProt P34972); assay: functional cAMP assay, CB2; type: cell-based; conditions: functional cAMP assay, CHO cells expressing human CB2; read-out: human CB2 EC50
# Procedure: (§1) CHO cells expressing human CB1 or CB2 receptors are seeded 17-24 hours prior to the experiment 50.000 cells per well in a black 96 well plate with flat clear bottom (Corning Costar #3904) in DMEM (Invitrogen No. 31331), 1×HT supplement, with 10% fetal calf serum and incubated at 5% CO2 and 37° C. in a humidified incubator. The growth medium was exchanged with Krebs Ringer Bicarbonate buffer with 1 mM IBMX and incubated at 30° C. for 30 min. Compounds were added to a final assay volume of 100 μl and incubated for 30 min at 30° C. Using the cAMP-Nano-TRF detection kit the assay (Roche Diagnostics) was stopped by the addition of 50 μl lysis reagent (Tris, NaCl, 1.5% Triton X100, 2.5% NP40, 10% NaN3) and 50 μl detection solutions (20 μM mAb Alexa700-cAMP 1:1, and 48 μM Ruthenium-2-AHA-cAMP) and shaken for 2 h at room temperature. The time-resolved energy transfer is measured by a TRF reader (Evotec Technologies GmbH), equipped with a ND:YAG laser as excitation source. The plate is measured twice with the excitation at 355 nm and at the emission with a delay of 100 ns and a gate of 100 ns, total exposure time 10s at 730 (bandwidth 30 nm) or 645 nm (bandwidth 75 nm), respectively. The FRET signal is calculated as follows: FRET=T730-Alexa730-P(T645-B645) with P=Ru730-B730/Ru645-B645, where T730 is the test well measured at […], T645 is the test well measured at 645 nm, B730 and B645 are the buffer controls at 730 nm and 645 nm, respectively. cAMP content is determined from the function of a standard curve spanning from 10 μM to 0.13 nM cAMP.
# (§2) EC50 values were determined using Activity Base analysis (ID Business Solution, Limited). The EC50 values for a wide range of cannabinoid agonists generated from this assay were in agreement with the values published in the scientific literature.
# [2] = biological target: human CB1 receptors (Homo sapiens (Human), UniProt P21554); assay: functional cAMP assay, CB1; type: cell-based; conditions: functional cAMP assay, CHO cells expressing human CB1; read-out: human CB1 EC50
# Procedure: as §1, §2
# Sequence of human CB1 receptors (P21554 whole entry): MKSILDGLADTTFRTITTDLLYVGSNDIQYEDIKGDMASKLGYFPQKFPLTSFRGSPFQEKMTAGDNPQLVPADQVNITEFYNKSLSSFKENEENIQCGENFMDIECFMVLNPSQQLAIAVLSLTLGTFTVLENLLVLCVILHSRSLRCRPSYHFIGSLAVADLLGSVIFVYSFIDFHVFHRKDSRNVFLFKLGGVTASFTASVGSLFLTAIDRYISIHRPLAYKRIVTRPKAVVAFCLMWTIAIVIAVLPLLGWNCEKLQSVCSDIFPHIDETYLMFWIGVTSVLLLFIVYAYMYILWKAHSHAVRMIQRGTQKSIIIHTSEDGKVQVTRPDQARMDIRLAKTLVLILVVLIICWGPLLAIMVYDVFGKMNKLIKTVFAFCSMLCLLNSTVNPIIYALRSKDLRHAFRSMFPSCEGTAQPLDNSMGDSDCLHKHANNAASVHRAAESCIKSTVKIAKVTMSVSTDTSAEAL
# Sequence of human CB2 receptors (P34972 whole entry): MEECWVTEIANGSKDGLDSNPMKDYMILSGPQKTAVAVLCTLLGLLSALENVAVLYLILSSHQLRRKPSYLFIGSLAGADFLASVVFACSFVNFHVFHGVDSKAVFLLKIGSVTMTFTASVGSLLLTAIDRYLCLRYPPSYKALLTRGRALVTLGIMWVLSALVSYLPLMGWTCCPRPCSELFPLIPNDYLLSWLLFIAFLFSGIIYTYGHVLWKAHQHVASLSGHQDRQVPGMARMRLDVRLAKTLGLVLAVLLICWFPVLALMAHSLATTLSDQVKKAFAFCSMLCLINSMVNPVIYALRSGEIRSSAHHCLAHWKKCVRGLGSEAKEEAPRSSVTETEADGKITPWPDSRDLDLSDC
SMILES,EC50 [1] [nM],EC50 [2] [nM]
"Cc1nc(C(C)(C)NC(=O)c2cnc(N3CC(F)(F)C3)c(-c3cccc(Cl)c3)n2)no1 [Example 4, 6-(3-Chloro-phenyl)-5-(3,3-difluoro-azetidin-1-yl)-pyrazine-2-carboxylic acid [1-methyl-1-(5-methyl-[1,2,4]oxadiazol-3-yl)-ethyl]-amide]",108,> 10000
"Cc1nc(C(C)(C)NC(=O)c2cnc(N3CCC3)c(-c3cccc(Cl)c3)n2)no1 [Example 5, 5-Azetidin-1-yl-6-(3-chloro-phenyl)-pyrazine-2-carboxylic acid [1-methyl-1-(5-methyl-[1,2,4]oxadiazol-3-yl)-ethyl]-amide]",140,> 10000
"CC(C)(NC(=O)c1cnc(C2CC2)c(-c2cccc(Cl)c2)n1)c1nccs1 [Example 6, 6-(3-Chloro-phenyl)-5-cyclopropyl-pyrazine-2-carboxylic acid (1-methyl-1-thiazol-2-yl-ethyl)-amide]",48,892
"O=C(NN1CCCCC1)c1cnc(C2CC2)c(-c2cccc(Cl)c2)n1 [Example 7, 6-(3-Chloro-phenyl)-5-cyclopropyl-pyrazine-2-carboxylic acid piperidin-1-ylamide]",255,> 10000
"CNC(=O)[C@@H](NC(=O)c1cnc(N2CC(F)(F)C2)c(OCC2CC2)n1)C(C)(C)C [Example 8, 6-Cyclopropylmethoxy-5-(3,3-difluoro-azetidin-1-yl)-pyrazine-2-carboxylic acid ((S)-2,2-dimethyl-1-methylcarbamoyl-propyl)-amide]",18.5,> 10000
"Cc1nc(C2(NC(=O)c3cnc(N4CC(F)(F)C4)c(OCC4CC4)n3)CCC2)no1 [Example 9, 6-Cyclopropylmethoxy-5-(3,3-difluoro-azetidin-1-yl)-pyrazine-2-carboxylic acid [1-(5-methyl-[1,2,4]oxadiazol-3-yl)-cyclobutyl]-amide]",87.9,1290
"CC(C)(CCO)NC(=O)c1cnc(C2CC2)c(OCC2CC2)n1 [Example 10, 5-Cyclopropyl-6-cyclopropylmethoxy-pyrazine-2-carboxylic acid (3-hydroxy-1,1-dimethyl-propyl)-amide]",257,> 10000
"O=C(NC1(CO)CCC1)c1cnc(C2CC2)c(OCC2CC2)n1 [Example 11, 5-Cyclopropyl-6-cyclopropylmethoxy-pyrazine-2-carboxylic acid (1-hydroxymethyl-cyclobutyl)-amide]",124,3320
"Cc1nc(C2(NC(=O)c3cnc(C4CC4)c(OCC4CC4)n3)CCC2)no1 [Example 12, 5-Cyclopropyl-6-cyclopropylmethoxy-pyrazine-2-carboxylic acid [1-(5-methyl-[1,2,4]oxadiazol-3-yl)-cyclobutyl]-amide]",85.2,> 10000
"CCC(C)(CO)NC(=O)c1cnc(C2CC2)c(OCC2CC2)n1 (stereo not shown) [Example 13, 5-Cyclopropyl-6-cyclopropylmethoxy-pyrazine-2-carboxylic acid (1-hydroxymethyl-1-methyl-propyl)-amide]",63.4,> 10000
"CNC(=O)[C@@H](NC(=O)c1cnc(C2CC2)c(OCC2CC2)n1)C(C)(C)C [Example 14, 5-Cyclopropyl-6-cyclopropylmethoxy-pyrazine-2-carboxylic acid ((S)-2,2-dimethyl-1-methylcarbamoyl-propyl)-amide]",6.8,155
"NC(=O)[C@@H](NC(=O)c1cnc(C2CC2)c(OCC2CC2)n1)c1ccccc1 [Example 15, 5-Cyclopropyl-6-cyclopropylmethoxy-pyrazine-2-carboxylic acid ((S)-carbamoyl-phenyl-methyl)-amide]",141,> 10000
"CC(C)(O)[C@H](CC1CC1)NC(=O)c1cnc(N2CC(F)(F)C2)c(OCC2CC2)n1 [Example 16, 6-Cyclopropylmethoxy-5-(3,3-difluoro-azetidin-1-yl)-pyrazine-2-carboxylic acid ((S)-1-cyclopropylmethyl-2-hydroxy-2-methyl-propyl)-amide]",36.9,> 10000
"CC(C)(C)C(CO)NC(=O)c1cnc(C2CC2)c(OCC2CC2)n1 (stereo not shown) [Example 19, 5-Cyclopropyl-6-cyclopropylmethoxy-pyrazine-2-carboxylic acid (1-hydroxymethyl-2,2-dimethyl-propyl)-amide]",53.5,> 10000
"Cc1nc([C@H](CC2CC2)NC(=O)c2cnc(N3CC(F)(F)C3)c(OCC3CC3)n2)no1 [Example 20, 6-Cyclopropylmethoxy-5-(3,3-difluoro-azetidin-1-yl)-pyrazine-2-carboxylic acid [(S)-2-cyclopropyl-1-(5-methyl-[1,2,4]oxadiazol-3-yl)-ethyl]-amide]",28.4,> 10000
"O=C(NC(CO)C1CC1)c1cnc(N2CC(F)(F)C2)c(OCC2CC2)n1 (stereo not shown) [Example 21, 6-Cyclopropylmethoxy-5-(3,3-difluoro-azetidin-1-yl)-pyrazine-2-carboxylic acid (1-cyclopropyl-2-hydroxy-ethyl)-amide]",61.3,> 10000
"NC(=O)[C@@H](NC(=O)c1cnc(N2CC(F)(F)C2)c(OCC2CC2)n1)c1ccccc1 [Example 22, 6-Cyclopropylmethoxy-5-(3,3-difluoro-azetidin-1-yl)-pyrazine-2-carboxylic acid ((S)-carbamoyl-phenyl-methyl)-amide]",93,> 10000
"COC(=O)[C@@H](NC(=O)c1cnc(C2CC2)c(OCC2CC2)n1)C(C)(C)C [Example 23, (S)-2-[(5-Cyclopropyl-6-cyclopropylmethoxy-pyrazine-2-carbonyl)-amino]-3,3-dimethyl-butyric acid methyl ester]",1.7,157
"CNC(=O)[C@H](CC1CC1)NC(=O)c1cnc(C2CC2)c(OCC2CC2)n1 [Example 24, 5-Cyclopropyl-6-cyclopropylmethoxy-pyrazine-2-carboxylic acid ((S)-2-cyclopropyl-1-methylcarbamoyl-ethyl)-amide]",199,> 10000
"CN(C)C(=O)[C@H](CC1CC1)NC(=O)c1cnc(C2CC2)c(OCC2CC2)n1 [Example 25, 5-Cyclopropyl-6-cyclopropylmethoxy-pyrazine-2-carboxylic acid ((S)-2-cyclopropyl-1-dimethylcarbamoyl-ethyl)-amide]",14.6,> 10000
"CNC(=O)[C@H](CC(C)C)NC(=O)c1cnc(C2CC2)c(OCC2CC2)n1 [Example 26, 5-Cyclopropyl-6-cyclopropylmethoxy-pyrazine-2-carboxylic acid ((S)-3-methyl-1-methylcarbamoyl-butyl)-amide]",13.5,> 10000
"CC(C)C[C@H](NC(=O)c1cnc(C2CC2)c(OCC2CC2)n1)C(=O)N(C)C [Example 27, 5-Cyclopropyl-6-cyclopropylmethoxy-pyrazine-2-carboxylic acid ((S)-1-dimethylcarbamoyl-3-methyl-butyl)-amide]",2.7,> 10000
"NC(=O)[C@H](CC1CC1)NC(=O)c1cnc(C2CC2)c(OCC2CC2)n1 [Example 28, 5-Cyclopropyl-6-cyclopropylmethoxy-pyrazine-2-carboxylic acid ((S)-1-carbamoyl-2-cyclopropyl-ethyl)-amide]",43.5,> 10000
